According to ChEMBL document CHEMBL4130448, “Novel SERMs based on 3-aryl-4-aryloxy-2H-chromen-2-one skeleton - A possible way to dual ERα/VEGFR-2 ligands for treatment of breast cancer” (Eur J Med Chem, 2017):
Activity calls are given as the source filed them. The rule behind the calls is not given here.

Legend:
[1] = target: Vascular endothelial growth factor receptor 2 (Homo sapiens) (UniProt P35968); assay: Inhibition of His-tagged human VEGFR2 at 40 uM incubated for 1 hr by HTRF assay
Estrogen receptor = target: T1, Estrogen receptor (Homo sapiens, UniProt P03372); assay: Displacement of fluorescent estrogen ligand from recombinant human ERalpha expressed in insect cells incubated for 2 hrs by polarization
T1 sequence (P03372 whole entry): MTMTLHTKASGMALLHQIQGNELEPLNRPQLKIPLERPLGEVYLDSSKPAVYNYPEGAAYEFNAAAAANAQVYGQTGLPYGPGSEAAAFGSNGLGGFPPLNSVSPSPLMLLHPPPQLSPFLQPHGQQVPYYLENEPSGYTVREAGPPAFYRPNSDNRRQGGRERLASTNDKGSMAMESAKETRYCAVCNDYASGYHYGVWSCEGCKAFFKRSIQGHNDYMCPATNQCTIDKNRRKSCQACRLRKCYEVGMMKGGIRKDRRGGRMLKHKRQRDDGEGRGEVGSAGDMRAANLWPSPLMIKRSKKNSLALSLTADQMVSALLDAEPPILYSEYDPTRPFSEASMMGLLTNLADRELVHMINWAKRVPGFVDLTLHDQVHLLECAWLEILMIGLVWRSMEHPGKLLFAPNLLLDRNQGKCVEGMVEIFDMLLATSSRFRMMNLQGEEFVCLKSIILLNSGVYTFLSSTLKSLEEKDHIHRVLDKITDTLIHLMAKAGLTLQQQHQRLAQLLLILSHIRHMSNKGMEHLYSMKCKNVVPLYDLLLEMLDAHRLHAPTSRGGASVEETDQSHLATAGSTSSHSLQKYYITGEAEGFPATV

Ishikawa = assay: cells; conditions: Homo sapiens, 48 h
Description: Cytotoxicity in human Ishikawa cells assessed as inhibition of cell growth incubated for 48 hrs by MTT assay

MCF7 [2] = assay: cells; conditions: Homo sapiens, MCF7, 48 h
Description: Cytotoxicity in human MCF7 cells assessed as inhibition of cell growth incubated for 48 hrs by MTT assay

HUVEC = assay: Antiangiogenic activity against HUVEC incubated for 48 hrs by MTT assay; assay type: functional, cell-based; conditions: Homo sapiens
[3] = target: Vascular endothelial growth factor receptor 2 (Homo sapiens) (UniProt P35968); assay: Inhibition of VEGFR2 phosphorylation in human MCF7 cells at 2 uM incubated for 24 hrs by Western blot method relative to sunitinib; assay type: cell-based
MCF7 [4] = assay: Induction of cell cycle arrest in human MCF7 cells assessed as accumulation at G2/M phase at 6 uM incubated for 24 hrs by propidium iodide staining flow cytometry (reference value: 26.84%); assay type: functional
MCF7 [5] = assay: Induction of cell cycle arrest in human MCF7 cells assessed as reduction in accumulation at G2/M phase incubated for 24 hrs by propidium iodide staining flow cytometry; assay type: functional, cell-based
MCF7 [6] = assay: Induction of cell cycle arrest in human MCF7 cells assessed as accumulation at S phase at 2 uM incubated for 24 hrs by propidium iodide staining flow cytometry (reference value: 24.64%); assay type: functional
MCF7 [7] = assay: Induction of cell cycle arrest in human MCF7 cells assessed as accumulation at G0/G1 phase at 4 uM incubated for 24 hrs by propidium iodide staining flow cytometry (reference value: 48.52%); assay type: functional
MCF7 [8] = assay: Induction of cell cycle arrest in human MCF7 cells assessed as accumulation at S phase at 6 uM incubated for 24 hrs by propidium iodide staining flow cytometry (reference value: 24.64%); assay type: functional
[9] = target: Vascular endothelial growth factor receptor 2 (Homo sapiens) (UniProt P35968); assay: Inhibition of VEGFR2 phosphorylation in human MCF7 cells incubated for 24 hrs by Western blot method; assay type: cell-based
[10] = target: Vascular endothelial growth factor receptor 2 (Homo sapiens) (UniProt P35968); assay: Inhibition of VEGFR2 in human MCF7 cells assessed as reduction in p-ERK1/2 protein level incubated for 24 hrs by Western blot method; assay type: cell-based
MCF7 [11] = assay: Effect on total Raf1 protein level in human MCF7 cells at 2 to 4 uM incubated for 24 hrs by Western blot method; assay type: ADME, cell-based; conditions: mcf7, 24 h
MCF7 [12] = assay: Induction of cell cycle arrest in human MCF7 cells assessed as accumulation at G2/M phase at 2 uM incubated for 24 hrs by propidium iodide staining flow cytometry (reference value: 26.84%); assay type: functional
[13] = target: Vascular endothelial growth factor receptor 2 (Homo sapiens) (UniProt P35968); assay: Inhibition of VEGFR2 in human MCF7 cells assessed as reduction in p-Raf1 protein level incubated for 24 hrs by Western blot method; assay type: cell-based
MCF7 [14] = assay: Induction of cell cycle arrest in human MCF7 cells assessed as reduction in accumulation at S phase incubated for 24 hrs by propidium iodide staining flow cytometry; assay type: functional, cell-based
MCF7 [15] = assay: Induction of cell cycle arrest in human MCF7 cells assessed as accumulation at G2/M phase at 4 uM incubated for 24 hrs by propidium iodide staining flow cytometry (reference value: 26.84%); assay type: functional
MCF7 [16] = assay: Induction of cell cycle arrest in human MCF7 cells assessed as accumulation at G0/G1 phase at 2 uM incubated for 24 hrs by propidium iodide staining flow cytometry (reference value: 48.52%); assay type: functional
MCF7 [17] = assay: Induction of cell cycle arrest in human MCF7 cells assessed as accumulation at G0/G1 phase at 6 uM incubated for 24 hrs by propidium iodide staining flow cytometry (reference value: 48.52%); assay type: functional
MCF7 [18] = assay: Induction of cell cycle arrest in human MCF7 cells assessed as accumulation at G0/G1 phase incubated for 24 hrs by propidium iodide staining flow cytometry; assay type: functional, cell-based
MCF7 [19] = assay: Effect on total ERK1/2 protein level in human MCF7 cells at 2 to 4 uM incubated for 24 hrs by Western blot method; assay type: ADME, cell-based; conditions: mcf7, 24 h
MCF7 [20] = assay: Induction of cell cycle arrest in human MCF7 cells assessed as accumulation at S phase at 4 uM incubated for 24 hrs by propidium iodide staining flow cytometry (reference value: 24.64%); assay type: functional

Chain of Vascular endothelial growth factor receptor 2 (Homo sapiens) (P35968 whole entry): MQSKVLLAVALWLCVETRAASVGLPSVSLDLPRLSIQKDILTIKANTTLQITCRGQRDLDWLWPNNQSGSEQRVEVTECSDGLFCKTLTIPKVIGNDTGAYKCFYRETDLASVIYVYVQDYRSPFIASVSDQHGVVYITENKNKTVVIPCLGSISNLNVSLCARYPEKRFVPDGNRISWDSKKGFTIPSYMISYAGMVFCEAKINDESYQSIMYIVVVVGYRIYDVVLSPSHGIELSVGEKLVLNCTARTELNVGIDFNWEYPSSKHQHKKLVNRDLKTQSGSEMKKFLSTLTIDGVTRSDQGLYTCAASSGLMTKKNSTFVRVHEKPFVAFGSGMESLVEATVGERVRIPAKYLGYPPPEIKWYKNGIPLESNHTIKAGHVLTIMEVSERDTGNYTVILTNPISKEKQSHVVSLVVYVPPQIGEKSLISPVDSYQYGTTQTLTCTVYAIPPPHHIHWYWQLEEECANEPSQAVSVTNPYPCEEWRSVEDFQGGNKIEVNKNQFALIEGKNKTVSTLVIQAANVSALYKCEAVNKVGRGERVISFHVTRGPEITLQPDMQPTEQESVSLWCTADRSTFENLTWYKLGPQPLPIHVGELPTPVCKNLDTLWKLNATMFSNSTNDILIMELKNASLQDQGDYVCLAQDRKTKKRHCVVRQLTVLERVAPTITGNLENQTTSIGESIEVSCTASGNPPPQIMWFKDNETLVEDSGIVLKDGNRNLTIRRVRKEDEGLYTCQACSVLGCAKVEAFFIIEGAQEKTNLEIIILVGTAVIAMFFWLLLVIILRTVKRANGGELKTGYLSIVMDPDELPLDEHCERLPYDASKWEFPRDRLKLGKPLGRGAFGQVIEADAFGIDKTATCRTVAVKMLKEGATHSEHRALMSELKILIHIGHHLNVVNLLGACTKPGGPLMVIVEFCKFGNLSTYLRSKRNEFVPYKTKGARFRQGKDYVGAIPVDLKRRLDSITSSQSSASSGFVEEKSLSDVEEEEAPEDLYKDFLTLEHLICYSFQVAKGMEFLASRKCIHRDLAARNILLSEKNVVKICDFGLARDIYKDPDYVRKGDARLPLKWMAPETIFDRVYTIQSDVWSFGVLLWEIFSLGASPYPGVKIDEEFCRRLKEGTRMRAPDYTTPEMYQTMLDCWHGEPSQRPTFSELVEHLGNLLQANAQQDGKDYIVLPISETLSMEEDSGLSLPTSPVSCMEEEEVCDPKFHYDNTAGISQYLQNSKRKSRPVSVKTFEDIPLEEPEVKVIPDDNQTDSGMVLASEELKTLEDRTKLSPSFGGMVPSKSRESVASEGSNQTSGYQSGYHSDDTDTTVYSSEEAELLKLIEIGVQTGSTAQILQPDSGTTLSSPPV

Compound: COc1ccc(-c2c(Oc3ccc(OCCN4CCCCC4)cc3)c3ccc(OC)cc3oc2=O)cc1
- inhibition [1]: 67.6%
- IC50 (Estrogen receptor): 9.42 µM
- IC50 (Ishikawa): 7.47 µM
- IC50 (MCF7 [2]): 9.62 µM
- IC50 (HUVEC): 7.64 µM

Compound: CCN(CC)CCOc1ccc(Oc2c(-c3ccc(F)cc3)c(=O)oc3cc(OC)ccc23)cc1
- IC50 (Estrogen receptor): > 10 µM
- IC50 (Ishikawa): 15.7 µM
- IC50 (MCF7 [2]): 16.6 µM

Compound: COc1ccc2c(Nc3ccc(OCCN(C)C)cc3)c(-c3ccc(F)cc3)c(=O)oc2c1
- IC50 (Estrogen receptor): > 10 µM
- IC50 (Ishikawa): 13.5 µM
- IC50 (MCF7 [2]): 31.6 µM

Compound: CN(C)CCOc1ccc(Nc2c(-c3ccc(F)cc3)c(=O)oc3ccccc23)cc1
- IC50 (Estrogen receptor): > 10 µM
- IC50 (Ishikawa): 28.5 µM
- IC50 (MCF7 [2]): 32.5 µM

Compound: CN(C)CCOc1ccc(Nc2c(-c3ccc(O)cc3)c(=O)oc3cc(O)ccc23)cc1
- IC50 (Estrogen receptor): 8.21 µM
- IC50 (Ishikawa): 30.2 µM
- IC50 (MCF7 [2]): 28.4 µM

Compound: COc1cc2/c(=N/c3ccc(Br)cc3F)nc[nH]c2cc1OCC1CCN(C)CC1 [VANDETANIB]
- inhibition [1]: 95.7%
- IC50 (MCF7 [2]): 16.5 µM
- IC50 (HUVEC): 6.76 µM

Compound: CN(C)CCOc1ccc(Nc2c(-c3ccc(F)cc3)c(=O)oc3cc(O)ccc23)cc1
- IC50 (Estrogen receptor): 6.62 µM
- IC50 (Ishikawa): 24.8 µM
- IC50 (MCF7 [2]): 19.3 µM

Compound: O=c1oc2cc(O)ccc2c(Oc2ccc(OCCN3CCCCC3)cc2)c1-c1ccc(F)cc1
- inhibition [3]: Active
- inhibition [1]: 82.9%
- IC50 (Estrogen receptor): 2.19 µM
- Activity (MCF7 [4]): 9.85%
- IC50 (Ishikawa): 11.1 µM
- Activity (MCF7 [5]): Dose-dependent effect
- IC50 (MCF7 [2]): 9.54 µM
- Activity (MCF7 [6]): 18.52%
- Activity (MCF7 [7]): 65.37%
- Activity (MCF7 [8]): 14.69%
- inhibition [9]: Dose-dependent effect
- inhibition [10]: Dose-dependent effect
- Activity (MCF7 [11]): Non-Toxic
- Activity (MCF7 [12]): 20.81%
- inhibition [13]: Dose-dependent effect
- Activity (MCF7 [14]): Dose-dependent effect
- Activity (MCF7 [15]): 16.22%
- Activity (MCF7 [16]): 60.67%
- Activity (MCF7 [17]): 75.46%
- Activity (MCF7 [18]): Dose-dependent effect
- Activity (MCF7 [19]): Non-Toxic
- Activity (MCF7 [20]): 18.41%
- IC50 (HUVEC): 15.7 µM

Compound: O=c1oc2cc(O)ccc2c(Oc2ccc(OCCN3CCCCC3)cc2)c1-c1ccc(O)cc1
- inhibition [1]: 66.1%
- IC50 (Estrogen receptor): 2.62 µM
- IC50 (Ishikawa): 28.4 µM
- IC50 (MCF7 [2]): 19.7 µM
- IC50 (HUVEC): 23.9 µM

Compound: COc1ccc2c(Oc3ccc(OCCN(C)C)cc3)c(-c3ccc(F)cc3)c(=O)oc2c1
- IC50 (Estrogen receptor): 8.96 µM
- IC50 (Ishikawa): 17.3 µM
- IC50 (MCF7 [2]): 15.3 µM

Compound: COc1ccc2c(Nc3ccc(OCCN4CCCC4)cc3)c(-c3ccc(F)cc3)c(=O)oc2c1
- IC50 (Estrogen receptor): > 10 µM
- IC50 (Ishikawa): 12.5 µM
- IC50 (MCF7 [2]): 21.5 µM

Compound: O=c1oc2cc(O)ccc2c(Oc2ccc(OCCN3CCCC3)cc2)c1-c1ccc(F)cc1
- IC50 (Estrogen receptor): 4.27 µM
- IC50 (Ishikawa): 22.6 µM
- IC50 (MCF7 [2]): 16.8 µM

Compound: COc1ccc2c(Oc3ccc(OCCN4CCCCC4)cc3)c(-c3ccc(F)cc3)c(=O)oc2c1
- inhibition [1]: 55.1%
- IC50 (Estrogen receptor): 6.87 µM
- IC50 (Ishikawa): 8.41 µM
- IC50 (MCF7 [2]): 9.32 µM
- IC50 (HUVEC): 13.6 µM

Compound: CCN(CC)CCOc1ccc(Nc2c(-c3ccc(F)cc3)c(=O)oc3cc(OC)ccc23)cc1
- IC50 (Estrogen receptor): > 10 µM
- IC50 (Ishikawa): 17.9 µM
- IC50 (MCF7 [2]): 26.3 µM

Compound: COc1ccc2c(Oc3ccc(OCCN4CCCC4)cc3)c(-c3ccc(F)cc3)c(=O)oc2c1
- IC50 (Estrogen receptor): > 10 µM
- IC50 (Ishikawa): 15.1 µM
- IC50 (MCF7 [2]): 14.6 µM

Compound: CN(C)CCOc1ccc(Oc2c(-c3ccc(O)cc3)c(=O)oc3cc(O)ccc23)cc1
- IC50 (Estrogen receptor): 8.43 µM
- IC50 (Ishikawa): 37 µM
- IC50 (MCF7 [2]): 41.4 µM

Compound: O=c1oc2ccccc2c(Nc2ccc(OCCN3CCCC3)cc2)c1-c1ccc(F)cc1
- IC50 (Estrogen receptor): > 10 µM
- IC50 (Ishikawa): 25.7 µM
- IC50 (MCF7 [2]): 26.1 µM

Compound: O=c1oc2cc(O)ccc2c(Nc2ccc(OCCN3CCCCC3)cc2)c1-c1ccc(F)cc1
- inhibition [1]: 88.4%
- IC50 (Estrogen receptor): 3.86 µM
- IC50 (Ishikawa): 10.4 µM
- IC50 (MCF7 [2]): 7.06 µM
- IC50 (HUVEC): 9.92 µM
